Source: the C3SDB collision cross section collection
“And” between values parts separate entries of the source, which are not always exact repeats. Identical values can stand only once. Blank lines part the entries; values can stand above or below the compound they belong to.

Conditions: instrument: TW, calibrated with polyalanine and drug standards

collision cross section (N2) ([M+H]+): 166.6 Å²
Compound: CC(C(=O)O)c1ccc(N2Cc3ccccc3C2=O)cc1 (stereo unspecified) [INDOPROFEN]

collision cross section (N2) ([M+H]+): 143.7 Å²
Compound: Oc1c(I)cc(I)c2cccnc12 [IODOQUINOL]

collision cross section (N2) ([M+H]+): 149.4 Å²
Compound: CC(C)NCC(O)c1ccc(O)c(O)c1 (stereo unspecified) [ISOPROTERENOL]

collision cross section (N2) ([M+H]+): 159.2 Å²
Compound: O=c1c(O)c(-c2ccc(O)cc2)oc2cc(O)cc(O)c12 [KAEMPFEROL]

collision cross section (N2) ([M+H]+): 157.5 Å²
Compound: CC(C(=O)O)c1cccc(C(=O)c2ccccc2)c1 (stereo unspecified) [KETOPROFEN]

collision cross section (N2) ([M+H]+): 121.9 Å²
Compound: O=c1cc(CO)occ1O [KOJIC ACID]

collision cross section (N2) ([M+H]+): 218.5 Å²
Compound: CC(=O)NCCc1ccc(O)c(-c2c(O)c(O)c3c(c2O)C(=O)c2c(cc(O)c(C(=O)O)c2C(=O)O)C3=O)c1 [LACCAIC ACID A]

collision cross section (N2) ([M+H]+): 141.7 Å²
Compound: CCOC(=O)Nc1nc2ccccc2[nH]1 [LOBENDAZOLE]

collision cross section (N2) ([M+H]+): 189.8 Å²
Compound: O=c1c2cc(O)c(O)cc2oc2cc(O)c([C@@H]3O[C@H](CO)[C@@H](O)[C@H](O)[C@H]3O)c(O)c12 [MANGIFERIN]

collision cross section (N2) ([M+H]+): 171.2 Å²
Compound: COC(=O)Nc1nc2ccc(C(=O)c3ccccc3)cc2[nH]1 [MEBENDAZOLE]

collision cross section (N2) ([M+H]+): 181.8 Å²
Compound: O[C@@H](c1cc(C(F)(F)F)nc2c(C(F)(F)F)cccc12)[C@H]1CCCCN1 [MEFLOQUINE]

collision cross section (N2) ([M+H]+): 194.8 Å²
Compound: CN(Cc1cnc2nc(N)nc(N)c2n1)c1ccc(C(=O)N[C@@H](CCC(=O)O)C(=O)O)cc1 [METHOTREXATE]

collision cross section (N2) ([M+H]+): 139.9 Å²
Compound: COc1c2occc2cc2ccc(=O)oc12 [METHOXSALEN]

collision cross section (N2) ([M+H]+): 147.6 Å²
Compound: C[C@](N)(Cc1ccc(O)c(O)c1)C(=O)O [METHYLDOPA]

collision cross section (N2) ([M+H-H2O]+): 132.6 Å²
Compound: NC[C@H](O)c1ccc(O)c(O)c1 [NOREPINEPHRINE]

The next lines start with the compound.

Compound: COc1cc(-c2coc3cc(OCc4ccccc4)c(OC)c(O)c3c2=O)cc(O)c1OC [IRIGENIN, 7-BENZYL ETHER]
collision cross section (N2) ([M+H]+): 198.6 Å² and 212.4 Å²

Compound: COc1cc(-c2coc3cc(OCc4ccccc4)c(OC)c(O)c3c2=O)cc(OCc2ccccc2)c1OC [IRIGENIN, DIBENZYL ETHER]
collision cross section (N2) ([M+H]+): 234.1 Å²

Compound: C=C1CCC2C(CC2(C)C)C(=O)CCC1O (stereo unspecified) [ISOKOBUSONE]
collision cross section (N2) ([M+H]+): 146 Å²

Compound: C/C=C/c1ccc2c(c1)OCO2 [ISOSAFROLE]
collision cross section (N2) ([M+H]+): 138.4 Å²

Compound: CCC(C)n1ncn(-c2ccc(N3CCN(c4ccc(OCC5COC(Cn6cncn6)(c6ccc(Cl)cc6Cl)O5)cc4)CC3)cc2)c1=O (stereo unspecified) [ITRACONAZOLE]
collision cross section (N2) ([M+H]+): 248.8 Å²

Compound: COC1=CC(=O)O[C@@H](/C=C/c2ccccc2)C1 [KAWAIN]
collision cross section (N2) ([M+H]+): 149.4 Å²

Compound: OC[C@H]1O[C@@H](O[C@@H]2[C@@H](CO)O[C@](O)(CO)[C@H]2O)[C@H](O)[C@@H](O)[C@H]1O [LACTULOSE]
collision cross section (N2) ([M+H]+): 169.2 Å²

Compound: CC(=O)O[C@H]1C[C@H](O[C@H]2[C@@H](O)C[C@H](O[C@H]3[C@@H](O)C[C@H](O[C@H]4CC[C@@]5(C)[C@H](CC[C@@H]6[C@@H]5C[C@@H](O)[C@]5(C)[C@@H](C7=CC(=O)OC7)CC[C@]65O)C4)O[C@@H]3C)O[C@@H]2C)O[C@H](C)[C@H]1O[C@@H]1O[C@H](CO)[C@@H](O)[C@H](O)[C@H]1O [LANATOSIDE C]
collision cross section (N2) ([M+H]+): 289.4 Å²

Compound: CCN1C[C@]2(OC(=O)c3ccccc3NC(C)=O)CC[C@H](OC)C34C1C(C[C@@H]32)[C@@]1(O)C[C@H](OC)[C@H]2C[C@@H]4[C@]1(O)[C@H]2OC [LAPPACONITINE]
collision cross section (N2) ([M+H]+): 232.5 Å²

Compound: C[N+](C)(C)C[C@H](O)CC(=O)[O-] [LEVOCARNITINE]
collision cross section (N2) ([M+H]+): 132.9 Å²

Compound: C[C@H]1COc2c(N3CCN(C)CC3)c(F)cc3c(=O)c(C(=O)O)cn1c23 [LEVOFLOXACIN]
collision cross section (N2) ([M+H]+): 188.5 Å²

Compound: C[C@H](CCC(=O)O)[C@H]1CC[C@H]2[C@@H]3CC[C@@H]4C[C@H](O)CC[C@]4(C)[C@H]3CC[C@]12C [LITHOCHOLIC ACID]
collision cross section (N2) ([M+H]+): 210.8 Å²

Compound: CCCCCc1c2c(cc(O)c1C(=O)O)OC(=O)c1c(cc(OC)cc1C(=O)CCCC)O2 [LOBARIC ACID]
collision cross section (N2) ([M+H]+): 209.7 Å²

Compound: O=C1CC[C@]23/C=C/C(=O)NCCCCNCCCNC(=O)/C=C/c4ccc(c2c4)O[C@@H]3C1 [LUNARINE]
collision cross section (N2) ([M+H]+): 203.4 Å²

Compound: OC[C@@H]1CCCN2CCCC[C@H]12 [LUPININE]
collision cross section (N2) ([M+H]+): 135.3 Å²

Compound: CC(=O)O[C@]1(C(C)=O)CC[C@H]2[C@@H]3C[C@H](C)C4=CC(=O)CC[C@]4(C)[C@H]3CC[C@@]21C [MEDROXYPROGESTERONE ACETATE]
collision cross section (N2) ([M+H]+): 197.2 Å²

Compound: CC(=O)[C@H]1CC[C@H]2[C@@H]3C[C@H](C)C4=CC(=O)CC[C@]4(C)[C@H]3[C@@H](O)C[C@]12C [MEDRYSONE]
collision cross section (N2) ([M+H]+): 183.2 Å²

Compound: CCN(CC)CCNC(=O)COc1ccc(OC)cc1 [MEFEXAMIDE]
collision cross section (N2) ([M+H]+): 171.2 Å²

Compound: CNC[C@H](O)[C@@H](O)[C@H](O)[C@H](O)CO [MEGLUMINE]
collision cross section (N2) ([M+H]+): 139 Å²

Compound: CC1=C2C(O)C(=O)OC3CC4C(C)(C)C(=O)C=C[C@]4(C)C(CC1)[C@]23C (stereo partly specified) [MEROGEDUNIN]
collision cross section (N2) ([M+H]+): 179.8 Å²

Compound: Cn1cc[nH]c1=S [METHIMAZOLE]
collision cross section (N2) ([M+H]+): 117.2 Å² and 117.1 Å²

Compound: COC(C)(C)CCC[C@H](C)C/C=C/C(C)=C/C(=O)OC(C)C [METHOPRENE (S)]
collision cross section (N2) ([M+Na]+): 187 Å²

Compound: CC[C@H](C)C(=O)O[C@H]1CCC=C2C=C[C@H](C)[C@H](CC[C@@H]3C[C@@H](O)CC(=O)O3)[C@H]21 [MEVASTATIN]
collision cross section (N2) ([M+Na]+): 198.4 Å²

Compound: CC1=CC2C(CC1=O)C(C)=CCC2C(C)C (stereo unspecified) [MUUROLLADIE-3-ONE]
collision cross section (N2) ([M+H]+): 138.5 Å²

Compound: c1cncc(C2=NCCC2)c1 [MYOSMINE]
collision cross section (N2) ([M+H]+): 128.2 Å²

Compound: NC(N)=NC(=O)c1nc(Cl)c(N2CCCCCC2)nc1N [N,N-HEXAMETHYLENEAMILORIDE]
collision cross section (N2) ([M+H]+): 174.7 Å²

Compound: CCC(C)C(NC)C(=O)O (stereo unspecified) [N-METHYLISOLEUCINE]
collision cross section (N2) ([M+H]+): 130.6 Å²

Compound: CN1CCOC(c2ccccc2)c2ccccc2C1 (stereo unspecified) [NEFOPAM]
collision cross section (N2) ([M+H]+): 157.1 Å²

Compound: Cc1c(NC(=O)c2cccnc2)c(=O)n(-c2ccccc2)n1C [NIFENAZONE]
collision cross section (N2) ([M+H]+): 172.5 Å²

Compound: COc1ccc(-c2cc(=O)c3c(OC)c(OC)c(OC)c(OC)c3o2)cc1OC [NOBILETIN]
collision cross section (N2) ([M+H]+): 191.3 Å²

Compound: CCn1cc(C(=O)O)c(=O)c2cc(F)c(N3CCNCC3)cc21 [NORFLOXACIN]
collision cross section (N2) ([M+H]+): 184.2 Å² and 170 Å²
